≈ marks a conversion by molar mass, not a printed value.
Experiments:
[1] = tested on: Plasmodium falciparum clone CDC Sierra Leone I (D-6); assay: In vitro inhibition of [3H]hypoxanthine uptake, P. falciparum D-6 clone; format: cell-based; conditions: Plasmodium falciparum, values in parentheses: culture medium with 10% Albumax I; read-out: IC50 (D-6)
Description: (§1) The in vitro assays were conducted by using a modification of the semiautomated microdilution technique of Desjardins et al.^11 and Chulay et al.^12 Two strains of Plasmodium falciparum clones, from CDC Indochina III (W-2), CDC Sierra Leone I (D-6). […] These solutions were subsequently serially diluted 2-fold with a Biomek 1000® (Beckman, Fullerton, Calif.) over 11 different concentrations. The parasites were exposed to serial dilutions of each compound for 48 h and incubated at 37° C. with 5% O2, 5% CO2, and 90% N2 prior to the addition of [^3H]hypoxanthine. […] Uptake of [^3H]hypoxanthine was measured with a Packard Topcount scintillation counter. […] The values without parentheses indicate culture in blood serum which more closely resemble conditions in a living animal.
(§2) The numbers associated with both W2 and D6 refer to IC50 values and the units are ng/ml.

[2] = tested on: Plasmodium falciparum clone CDC Indochina III (W-2); assay: In vitro inhibition of [3H]hypoxanthine uptake, P. falciparum W-2 clone; format: cell-based; conditions: Plasmodium falciparum, values in parentheses: culture medium with 10% Albumax I; read-out: IC50 (W-2)
Description: as §1, §2

**Q.** Which results are given for `CN1CCN(c2cc3c(cc2F)C(=O)c2nc4ccccc4c(=O)n2-3)CC1` [Example 18]?
**A.** IC50 [1]: 0.813 µg/mL (≈ 2.23 µM); IC50 [2]: 0.513 µg/mL (≈ 1.41 µM)

**Q.** Which IC50 [1] does the source give for `CCCCCCCCc1ccc2c(c1)C(=O)c1nc3cc(N(C)CCO)ccc3c(=O)n1-2` [Example 72] here?
**A.** Its IC50 is 7.86 µg/mL (≈ 18.1 µM).

**Q.** And the IC50 [2]?
**A.** The IC50 was 7.46 µg/mL (≈ 17.2 µM).

**Q.** How did the IC50 [1] turn out when `CC(C)(C)OC(=O)N/N=C1/c2ccccc2-n2c1nc1ccccc1c2=O` [Example 36] was run?
**A.** The IC50 was 4.2 µg/mL (≈ 11.6 µM).

**Q.** What about the IC50 [2] of the same compound?
**A.** Its IC50 is 4.82 µg/mL (≈ 13.3 µM).

**Q.** What does the source list for `O=C(N/N=C1\c2ccccc2-n2c1nc1ccccc1c2=O)c1ccncc1` [Example 43]?
**A.** IC50 [1]: 38.2 µg/mL (≈ 104 µM); IC50 [2]: 23 µg/mL (≈ 62.6 µM)

**Q.** Which IC50 [1] does the source give for `O=C1c2cc(/C=N/N3CCCCC3)ccc2-n2c1nc1ccncc1c2=O` [Example 89] here?
**A.** The IC50 was 0.112 µg/mL (≈ 0.311 µM).

**Q.** And the IC50 [2]?
**A.** Its IC50 is 0.0688 µg/mL (≈ 0.191 µM).

**Q.** How did the IC50 [1] turn out when `CCOC(=O)c1ccc2c(c1)C(=O)c1nc3ccc(I)cc3c(=O)n1-2` [Example 26] was run?
**A.** Its IC50 is 0.589 µg/mL (≈ 1.32 µM).

**Q.** And the IC50 [2]?
**A.** The IC50 was 0.609 µg/mL (≈ 1.37 µM).

**Q.** How did the IC50 [1] turn out when `O=C1c2ccccc2-n2c1nc1c(Br)cc(Br)c(F)c1c2=O` [Example 33] was run?
**A.** The IC50 was 0.0671 µg/mL (≈ 0.158 µM).

**Q.** What about the IC50 [2] of the same compound?
**A.** Its IC50 is 0.0796 µg/mL (≈ 0.188 µM).

**Q.** What does the source list for `CN1CCN(c2ccc3c(=O)n4c(nc3c2)C(=O)c2cc(F)ccc2-4)CC1` [Example 15]?
**A.** IC50 [1]: 0.126 µg/mL (≈ 0.345 µM); IC50 [2]: 0.082 µg/mL (≈ 0.225 µM)

**Q.** For `O=c1c2ccccc2nc2/c(=C/C=C/c3ccccc3)c3ccccc3n12` [Example 67], which IC50 [1] is on record?
**A.** Its IC50 is 4.44 µg/mL (≈ 12.7 µM).

**Q.** And the IC50 [2]?
**A.** Its IC50 is 4.42 µg/mL (≈ 12.7 µM).

**Q.** Which results are given for `NC(=O)N/N=C1/c2ccccc2-n2c1nc1ccccc1c2=O` [Example 37]?
**A.** IC50 [1]: 3.78 µg/mL (≈ 12.4 µM); IC50 [2]: 3.48 µg/mL (≈ 11.4 µM)

**Q.** Which IC50 [1] does the source give for `Nc1ccc2nc3n(c(=O)c2c1)-c1ccc(F)cc1C3=O` [Example 8] here?
**A.** The IC50 was 0.062 µg/mL (≈ 0.22 µM).

**Q.** And the IC50 [2]?
**A.** Its IC50 is 0.062 µg/mL (≈ 0.22 µM).

**Q.** How did the IC50 [1] turn out when `CCCCCCCCc1ccc2c(c1)C(=O)c1nc3ccncc3c(=O)n1-2` [Example 41] was run?
**A.** The IC50 was 0.0123 µg/mL (≈ 0.0341 µM).

**Q.** What about the IC50 [2] of the same compound?
**A.** The IC50 was 0.00766 µg/mL (≈ 0.0212 µM).

**Q.** With `O=C1c2cc(C3OCCCO3)ccc2-n2c1nc1ccncc1c2=O` [Example 77] as the compound, how does the IC50 [1] read?
**A.** Its IC50 is 0.22 µg/mL (≈ 0.657 µM).

**Q.** And the IC50 [2]?
**A.** The IC50 was 0.165 µg/mL (≈ 0.493 µM).

**Q.** Which IC50 [1] does the source give for `CCCCCCCCc1ccc2nc3n(c(=O)c2c1)-c1ccc(Cl)cc1C3=O` [Example 44] here?
**A.** Its IC50 is 6.92 µg/mL (≈ 17.5 µM).

**Q.** What about the IC50 [2] of the same compound?
**A.** Its IC50 is 5.86 µg/mL (≈ 14.8 µM).

**Q.** For `Cc1ncc2c(=O)n3c(nc2n1)C(=O)c1cc(I)ccc1-3` [Example 54], which IC50 [1] is on record?
**A.** The IC50 was 0.0746 µg/mL (≈ 0.191 µM).

**Q.** And the IC50 [2]?
**A.** Its IC50 is 0.124 µg/mL (≈ 0.318 µM).

**Q.** Which IC50 [1] does the source give for `COCCOC(c1ccc2c(c1)C(=O)c1nc3ccncc3c(=O)n1-2)C(C)C` (stereo not drawn) [Example 85] here?
**A.** Its IC50 is 0.136 µg/mL (≈ 0.358 µM).

**Q.** And the IC50 [2]?
**A.** Its IC50 is 0.105 µg/mL (≈ 0.278 µM).

**Q.** Which results are given for `O=C1c2c(Cl)cccc2-n2c1nc1ccccc1c2=O` [Example 9]?
**A.** IC50 [1]: 0.471 µg/mL (≈ 1.67 µM); IC50 [2]: 0.403 µg/mL (≈ 1.43 µM)

**Q.** What does the source list for `CCOC(=O)C(O)(C(=O)OCC)C1c2ccccc2-n2c1nc1ccccc1c2=O` (stereo not drawn) [Example 65]?
**A.** IC50 [1]: 0.259 µg/mL (≈ 0.634 µM); IC50 [2]: 0.154 µg/mL (≈ 0.377 µM)

**Q.** How did the IC50 [1] turn out when `COCc1ccc2c(c1)C(=O)c1nc3ccncc3c(=O)n1-2` [Example 62] was run?
**A.** The IC50 was 0.0313 µg/mL (≈ 0.107 µM).

**Q.** What about the IC50 [2] of the same compound?
**A.** The IC50 was 0.016 µg/mL (≈ 0.0546 µM).

**Q.** With `O=c1c2ccccc2nc2sc3ccccc3n12` [Example 2] as the compound, how does the IC50 [1] read?
**A.** Its IC50 is 12.5 µg/mL (≈ 49.5 µM).

**Q.** What about the IC50 [2] of the same compound?
**A.** Its IC50 is 15.6 µg/mL (≈ 61.9 µM).

**Q.** Which results are given for `O=C1c2cc(Cl)ccc2-n2c1nc1ccc(I)cc1c2=O` [Example 42]?
**A.** IC50 [1]: 0.0764 µg/mL (≈ 0.187 µM); IC50 [2]: 0.0632 µg/mL (≈ 0.155 µM)

**Q.** What does the source list for `CN(CCO)c1ccc2c(=O)n3c(nc2c1)C(=O)c1cc(OC(F)(F)F)ccc1-3` [Example 79]?
**A.** IC50 [1]: 0.07 µg/mL (≈ 0.173 µM); IC50 [2]: 0.0688 µg/mL (≈ 0.17 µM)

**Q.** Which results are given for `CN1CCN(c2cc3c(cc2F)C(=O)c2nc4cc(F)ccc4c(=O)n2-3)CC1` [Example 20]?
**A.** IC50 [1]: 1.05 µg/mL (≈ 2.76 µM); IC50 [2]: 0.734 µg/mL (≈ 1.92 µM)

**Q.** What does the source list for `COc1cccc2c(=O)n3c(nc12)/c(=C/c1ccccc1)c1cc(F)ccc13` [Example 75]?
**A.** IC50 [1]: 0.534 µg/mL (≈ 1.44 µM); IC50 [2]: 0.573 µg/mL (≈ 1.55 µM)

**Q.** What does the source list for `O=C1c2cc(Cl)ccc2-n2c1nc1ncncc1c2=O` [Example 50]?
**A.** IC50 [1]: 0.0442 µg/mL (≈ 0.155 µM); IC50 [2]: 0.0112 µg/mL (≈ 0.0392 µM)

**Q.** What does the source list for `CN(CCOC(=O)CCC(=O)O)c1ccc2c(=O)n3c(nc2c1)C(=O)c1cc(Cl)ccc1-3` [Example 61]?
**A.** IC50 [1]: 0.247 µg/mL (≈ 0.542 µM); IC50 [2]: 0.187 µg/mL (≈ 0.41 µM)

**Q.** How did the IC50 [1] turn out when `CC1(C)COC(c2ccc3c(c2)C(=O)c2nc4ccncc4c(=O)n2-3)OC1` [Example 81] was run?
**A.** The IC50 was 0.11 µg/mL (≈ 0.303 µM).

**Q.** What about the IC50 [2] of the same compound?
**A.** Its IC50 is 0.0739 µg/mL (≈ 0.203 µM).

**Q.** Which IC50 [1] does the source give for `O=C1c2ccccc2-n2c1nc1ccccc1c2=O` [Example 1] here?
**A.** The IC50 was 0.069 µg/mL (≈ 0.278 µM).

**Q.** And the IC50 [2]?
**A.** The IC50 was 0.069 µg/mL (≈ 0.278 µM).

**Q.** What does the source list for `O=c1c2ccccc2nc2oc3ccccc3n12` [Example 3]?
**A.** IC50 [1]: > 50 µg/mL; IC50 [2]: > 50 µg/mL

**Q.** For `CCOC(=O)C(O)(C(=O)OCC)C1c2cc(F)ccc2-n2c1nc1c(OC)cccc1c2=O` (stereo not drawn) [Example 76], which IC50 [1] is on record?
**A.** Its IC50 is 0.224 µg/mL (≈ 0.49 µM).

**Q.** What about the IC50 [2] of the same compound?
**A.** Its IC50 is 0.16 µg/mL (≈ 0.35 µM).
